We go through two molecules from patent US7348453B2, “Labile linkage for compound delivery to a cell” (Mirus Bio Corporation, priority 2003, dated 2008).

A short description of data set [1]: Measurement of acetal hydrolysis kinetics (absorbance vs time in buffered solutions). Type of data set: physicochemical. The conditions noted are these: formaldehyde-derived vs acetaldehyde-derived acetal. An excerpt:
To illustrate the rate of cleavage of several example ortho carboxy phenol derived acetals, we synthesized the molecules 1-3 (shown in FIG. 2) and measured the rates of acetal hydrolysis for each at pH 5.2-7.3. • Acetal 1. R′, R=alkyl; and R1, R2, R3, R4=hydrogen • Acetal 2. R′, R=alkyl; R1, R4=hydrogen; R2=carboxyl (carbon-containing group); R3=hydroxyl (heteroatom) • Acetal 3. R′=alkyl; R, R2, R3, R4=hydrogen; and R1=carboxyl (carbon-containing group)
To determine the rate of acetal hydrolysis, compounds 1-3 were added to buffered solutions (pH 7-8 with 5 mM HEPES, or pH 5-7 with 5 mM acetate) at various pH values and the absorbance of the solution was measured as a function of time (λ=302 nm for 1 and 2 and 310 nm for 3). The rate constant was determined by determining the slope of the line derived from plotting ln[1−((A∞−At)/(A28−Ao))] as a function of time t, where A28 is absorbance after >3 hours of hydrolysis, At is the absorbance at time t, and Ao is the initial absorbance. The half-life of the hydrolysis equals ln[2] divided by the rate constant.

The test system of data set [2] is Hepa mouse hepatoma cells. The experiment in a line: DNA transfection, luciferase expression (pCIluc/DW921 complexes with crosslinker). In kind it is cell-based. The conditions noted are these: pCIluc 10 μg/mL, DW921 100 μg/mL, 48 h, average of two wells. The protocol:
To a solution of plasmid DNA pCIluc (10 μg/mL, 0.075 mM in phosphate, 2.6 μg/μL pCIluc; prepared according to Danko et al. 1997) in 0.5 mL of 150 mM NaCl and 5 mM TAPS pH 9 was added 100 μg/mL DW921. The complexes were then reacted with glutaraldehyde, periodate oxidized phenyl glucoside (another crosslinker containing a labile bond), or periodate oxidized salicylic galactoside at 1, 2, 4, 8, or 16 μg/mL. The complexes were then added (200 μL) to wells containing Hepa mouse hepatoma cells in Dulbecco's modified Eagle's Media containing 10% fetal bovine serum. The cells were allowed to incubate for 48 h. The cells were then harvested and assayed for luciferase expression as previously reported. The amount of transfection was reported in relative light units and is the average transfection for two separate wells of cells.

SMILES strings stand for the structures.

For the molecule `CC(C)[C@@H]1CC[C@@H](C)C[C@H]1OCOc1c(C(=O)O)cccc1C(=O)O` [Acetal 3], in data set [1], the “rate of acetal hydrolysis relative to acetals derived from alkyl-substituted aldehydes (acetals 1 and 2)” value is reported as “hydrolyze more slowly”.
For `O=CCCCC=O` [glutaraldehyde], the “Relative Light Units (luciferase expression)” value is listed as 620 Relative Light Units in data set [2] (2 μg/mL dialdehyde crosslinker), 1,400 Relative Light Units in data set [2] (4 μg/mL dialdehyde crosslinker) and 590 Relative Light Units in data set [2] (8 μg/mL dialdehyde crosslinker).
